In paper PMC6996298 (Frontiers in Plant Science, 2020):

Key:
VvSWEET7 = biological target: T1, VvSWEET7 (Vitis vinifera, UniProt A0ACM8QLM4); assay: inhibition of D-[…]-glucose uptake in yeast EBY.VW4000; assay type: cell-based; conditions: read-out: % inhibition at 500 mM
T1 construct: gene VIT_02s0025g02080; full-length cDNA in pYES-DEST52 (GAL1 promoter), expressed in hxt-null S. cerevisiae EBY.VW4000
T1 sequence (A0ACM8QLM4 1-260): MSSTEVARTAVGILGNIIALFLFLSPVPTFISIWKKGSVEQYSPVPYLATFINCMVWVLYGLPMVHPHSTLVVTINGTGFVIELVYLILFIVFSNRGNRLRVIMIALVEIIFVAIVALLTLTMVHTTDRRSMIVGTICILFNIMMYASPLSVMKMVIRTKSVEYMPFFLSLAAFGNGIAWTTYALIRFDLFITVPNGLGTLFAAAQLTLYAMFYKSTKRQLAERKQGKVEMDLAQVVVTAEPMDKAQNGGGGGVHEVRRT

[1] = substrate: OC[C@H]1O[C@@](CO)(O[C@H]2O[C@H](CO)[C@@H](O)[C@H](O)[C@H]2O)[C@@H](O)[C@@H]1O; assay: initial uptake of radiolabelled sugar in yeast EBY.VW4000, Michaelis-Menten; assay type: cell-based, Vitis vinifera; conditions: labelled compound, 7.5-125 mM, KH2PO4 pH 5.0, 30 °C, 3 min

Row | Molecule | inhibition at 500000 µM (VvSWEET7) [%] | Km [1] [mM]
1 | OCC1(O)OC[C@@H](O)[C@@H](O)[C@@H]1O (some centres unmarked) [fructose] | 79 | 
2 | OC[C@H]1OC(O)[C@H](O)[C@@H](O)[C@H]1O (some centres unmarked) [galactose] | 56 | 
3 | OC[C@@H](O)[C@@H](O)[C@H](O)[C@H](O)CO [mannitol] | 29 | 
4 | OC[C@@H](O)[C@@H](O)[C@H](O)[C@@H](O)CO [sorbitol] | 38 | 
5 | VvSWEET7 (Vitis vinifera) (protein, full-length cDNA in pYES-DEST52 (GAL1 promoter), expressed in hxt-null S. cerevisiae EBY.VW4000) MSSTEVARTAVGILGNIIALFLFLSPVPTFISIWKKGSVEQYSPVPYLATFINCMVWVLYGLPMVHPHSTLVVTINGTGFVIELVYLILFIVFSNRGNRLRVIMIALVEIIFVAIVALLTLTMVHTTDRRSMIVGTICILFNIMMYASPLSVMKMVIRTKSVEYMPFFLSLAAFGNGIAWTTYALIRFDLFITVPNGLGTLFAAAQLTLYAMFYKSTKRQLAERKQGKVEMDLAQVVVTAEPMDKAQNGGGGGVHEVRRT |  | 40.08
